Source: patent publication US20190134054A1, “ASSOCIATION OF ANTAGONISTS OF THE VASOPRESSIN RECEPTOR AND CALCIMIMETICS, COMPOSITION AND USE THEREOF FOR THE TREATMENT OF POLYCYSTIC KIDNEY” (UNIVERSITA' DEGLI STUDI DI BARI ALDO MORO, priority 2017, published 2019)
Entries after “also recorded” stand apart in the source; their conditions may differ.

Columns and labels:
[1] = tested on: intracellular calcium levels; assay: Intracellular calcium levels after tolvaptan; type: cell-based; conditions: treatment with Tolvaptan; CTR=67.06±2.6 nM, P<0.0001
Experimental: The treatment with Tolvaptan determines an increase of the intracellular calcium levels (TLV=99.6±4.1 nM; CTR=67.06±2.6 nM, P<0.0001).

V2 receptor = molecular target: T1, V2 receptor (Canis lupus familiaris, UniProt O77808); assay: dDAVP-induced intracellular cAMP levels (1/netFRET) in MDCK cells; type: cell-based, canine; conditions: dDAVP+TLV vs. dDAVP and CTR
T1 construct: canine kidney cells MDCK endogenously expressing the V2 receptor; endogenous in cells; host or cells: MDCK (canine kidney cells)
T1 sequence (O77808 whole entry): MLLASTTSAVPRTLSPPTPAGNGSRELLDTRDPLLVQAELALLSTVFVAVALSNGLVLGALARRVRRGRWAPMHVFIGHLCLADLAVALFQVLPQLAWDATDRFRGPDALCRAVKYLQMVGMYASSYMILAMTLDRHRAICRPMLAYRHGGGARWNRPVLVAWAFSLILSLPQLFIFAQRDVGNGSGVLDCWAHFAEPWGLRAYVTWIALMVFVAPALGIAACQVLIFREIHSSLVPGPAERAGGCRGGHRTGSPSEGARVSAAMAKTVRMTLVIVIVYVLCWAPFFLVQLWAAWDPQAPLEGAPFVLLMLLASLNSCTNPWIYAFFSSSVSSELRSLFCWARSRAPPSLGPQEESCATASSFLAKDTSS
From the text: The effects of the antagonists of the vasopressin receptor on the concentration of intracellular cAMP have been studied in the canine kidney cells MDCK endogenously expressing the V2 receptor.
Such a reduction of the cAMP levels has been detected through 1/netFRET.
Thus, the treatment with Tolvaptan leads to a reduction of the intracellular cAMP levels. The cAMP levels have been measured through 1/netFRET.

ciPTEC-PC1Pt cells [2] = assay: Intracellular calcium levels after tecalcet (Fura 2), ciPTEC-PC1Pt cells; type: cell-based, human; conditions: 10 μM, ciPTEC-PC1Pt cells (ADPKD patients), n=30
Experimental: (§1) The experiments described from Example 1 to Example 5 have been carried out on i) ciPTEC human kidney cells of the proximal tubule isolated from healthy subjects (ciPTECwt), ii) on the same cells silenced for the gene encoding the polycystin 1 (ciPTE-PC1KO) and iii) on ciPTEC cells isolated from patients affected by ADPKD (ciPTEC-PC1Pt).
(§2) Three types of the aforementioned cellular lines have been treated with 10 μM calciomimetic tecalcet, and the result is that the ciPTEC-PC1Pt cells, isolated from patients suffering from the polycystic kidney disease, respond similarly to the ciPTECwt cells to the stimulation with the calciomimetic, thus leading to an increase of intracellular calcium levels (FIG. 4). Such intracellular calcium levels, in the present example, have been detected thanks to the colorant Fura 2 that is sensitive to calcium.
(§3) The ciPTEC-PC1Pt cells respond similarly to the ciPTECwt cells to the stimulation with NPS-R568 calciomimetic, also called tecalcet, at a concentration of 10 μM. […] The intracellular calcium levels have been measured through the colorant Fura 2 that is sensitive to calcium.

ciPTEC-PC1Pt cells [3] = assay: Intracellular cAMP levels after tecalcet (FRET), ciPTEC-PC1Pt cells; type: cell-based, human; conditions: 10 μM, 1/netFRET
From the text: as §1
(§4) Such cAMP levels have been measured through FRET.
(§5) The cAMP levels have been measured through 1/netFRET.

ciPTEC-PC1KO cells [4] = assay: Intracellular cAMP levels after tecalcet (FRET), ciPTEC-PC1KO cells; type: cell-based, human; conditions: 10 μM, 1/netFRET
From the text: as §1, §4, §5

ciPTECwt cells = assay: Intracellular calcium levels after tecalcet (Fura 2), ciPTECwt cells; type: cell-based, human; conditions: 10 μM, n=40
Experimental: as §1, §2, §3

mTOR signaling pathway [5] = assay: mTOR signaling: S6 ribosomal protein phosphorylation, ciPTEC-PC1KO cells; type: cell-based, human; conditions: 10 μM
From the text: as §1
(§6) In the present example, the activity of mTOR has been studied by detecting the phosphorylation levels of the S6 ribosomal protein.
(§7) By treating the aforementioned cells with the calciomimetic tecalcet at the concentration of 10 μM, the activity of mTOR is reduced, thus decreasing the S6 phosphorylation.

ciPTEC-PC1KO cells [6] = assay: Intracellular calcium levels after tecalcet (Fura 2), ciPTEC-PC1KO cells; type: cell-based, human; conditions: 10 μM, n=47
Experimental: as §1, §2, §3

mTOR signaling pathway [7] = assay: mTOR signaling: S6 ribosomal protein phosphorylation, ciPTEC-PC1Pt cells; type: cell-based, human; conditions: 10 μM
From the text: as §1, §6, §7

For Cc1ccccc1C(=O)Nc1ccc(C(=O)N2CCCC(O)c3cc(Cl)ccc32)c(C)c1 (stereo not drawn) [Tolvaptan], the intracellular calcium levels [1] was 99.6 ± 4.1 nM and the “cAMP levels induced by vasopressin (dDAVP)” value (V2 receptor) was “comparable to those of the control”.
For COc1cccc([C@@H](C)NCCCc2ccccc2Cl)c1 [tecalcet], the “intracellular calcium levels, response vs. ATP 100%” value (ciPTEC-PC1Pt cells [2]) was 29.51±3.93%, the “basal intracellular cAMP levels” value (ciPTEC-PC1Pt cells [3]) was “reduces the basal cAMP levels” and the “basal intracellular cAMP levels” value (ciPTEC-PC1KO cells [4]) was “reduces the basal cAMP levels”. The “intracellular calcium levels, response vs. ATP 100%” value (ciPTECwt cells) was 90.68±2.47%, the “S6 phosphorylation levels (mTOR activity)” value (mTOR signaling pathway [5]) was “comparable levels to those observed in the ciPTECwt cells; also recorded: reduces the phosphorylation of S6” and the “intracellular calcium levels, response vs. ATP 100%” value (ciPTEC-PC1KO cells [6]) was 24.32±2.59%. The “S6 phosphorylation levels (mTOR activity)” value (mTOR signaling pathway [7]) was “reduces the phosphorylation of S6”.
